# Article PMC11474028, “Lipopeptide antibiotics disrupt interactions of undecaprenyl phosphate with UptA” (Proceedings of the National Academy of Sciences of the …, 2024)
# “Also recorded” adds a separate entry of the source.
# Experiments:
# [1] = tested on: UptA E32A; assay: Native MS of C55-P binding to UptA mutant E32A; set-up: species or system Bacillus subtilis; conditions: 2.5 µM E32A UptA and 10 µM C55-P, pH 8.0
# Source text: Conserved arginine residues in the putative membrane reentrant loops of E. coli DedA proteins YqjA (R130) and YghB (R136) are important for the cellular role of these proteins ([36]). […] How these residues impact substrate interactions, however, is not known. Based on the model structure of UptA predicted by AlphaFold, the R112 residue should engage Q64 while R118 is able to form hydrogen bonds with E32, H119, and W146 to potentially stabilize the membrane reentrant loops (Fig. 3A). To test for the impact of these residues on C55-P binding, we generated the E32A, Q64A, R112A, R118A, H119A, and W146A UptA single mutants. After purification of the proteins, using the same protocol as the wild type (WT) (Materials and Methods and SI Appendix, Fig. […]
# (§1) Expression and purification of UptA
# (§2) Plasmids were used to transform chemically competent E. coli C43(DE3) cells (Lucigen) and selected on LB/Agar containing 100 μg/ml ampicillin at 37 °C. Single colonies were used to inoculate 60 mL LB containing 100 μg/ml ampicillin and were grown at 37 °C overnight for 16 h. […]
# The digestion mixture was subsequently incubated with 2-mL bed volume of nickel nitriloacetic acid (NTA) agarose resin to remove His-tagged GFP and TEV protease. […] Concentration was measured using a Biomate UV spectrophotometer at 280 nm using extinction coefficients calculated from their predicted amino […]
# [2] = tested on: UptA R112E/R118E; assay: Native MS of C55-P binding to UptA double mutant R112E/R118E; set-up: species or system Bacillus subtilis; conditions: 5 µM protein, 10 µM C55-P, pH 8.02, 0.05% LDAO, 200 mM ammonium acetate, 100 V; mean of three biological replicates
# Source text: Conserved arginine residues in the putative membrane reentrant loops of E. coli DedA proteins YqjA (R130) and YghB (R136) are important for the cellular role of these proteins ([36]). […] How these residues impact substrate interactions, however, is not known. Based on the model structure of UptA predicted by AlphaFold, the R112 residue should engage Q64 while R118 is able to form hydrogen bonds with E32, H119, and W146 to potentially stabilize the membrane reentrant loops (Fig. 3A). To test for the impact of these residues on C55-P binding, we generated the E32A, Q64A, R112A, R118A, H119A, and W146A UptA single mutants. After purification of the proteins, using the same protocol as the wild type (WT) (Materials and Methods and SI Appendix, Fig. S5), we equilibrated aliquots of each protein variant (5 µM) with C55-P (10 µM) and recorded spectra using the same instrument settings. […] We additionally generated a double mutant R112E/R118E in which the polarity of both native arginine residues in the wild type are reversed.
# as §1, §2
# [3] = tested on: MraY; assay type: binding, Aquifex aeolicus; conditions: MraY (2.5 µM) and C55-P (10 µM), molar ratio 1:4, pH 8.0 vs pH 5.0; negative control
# Source text: UptA is a member of the DedA family of transporters whose cellular functions are potentially driven by proton-motive force and provide conditional fitness to bacteria under alkaline conditions ([25], [26], [36]). […] To this end, we equilibrated C55-P with UptA at a protein/ligand molar ratio of 1:4 in a buffer of the same composition but at pH 8.0 and 5.0. […] As a negative control, we tested for pH sensitivity of C55-P binding to MraY, the latter being the downstream enzyme in the peptidoglycan pathway that couples UM5 to C55-P. To this end, we equilibrated MraY and C55-P at a molar ratio of 1:4 in a buffer of pH 8.0 and pH 5.0.
smiles,measurement,setting,value
"CC(C)=CCC/C(C)=C/CC/C(C)=C/CC/C(C)=C\CC/C(C)=C\CC/C(C)=C\CC/C(C)=C\CC/C(C)=C\CC/C(C)=C\CC/C(C)=C\CC/C(C)=C\COP(=O)(O)O [C55-P, undecaprenyl phosphate]",C55-P binding to E32A UptA dimers versus monomers (in words),[1],more significantly than the monomeric form; also recorded: relative intensity of ligand-bound dimers is significantly higher than the ligand-bound monomers
same,impact of C55-P binding on monomer–dimer ratio of E32A UptA (in words),[1],modest increase in the dimer fraction; also recorded: only a modest impact on the monomer–dimer ratios
same,"reduction in the intensity of C55-P binding compared to wild type, R112E/R118E",[2],63%
same,pH sensitivity of C55-P binding to MraY (in words),[3],no pH-dependency in C55-P binding by MraY; also recorded: no significant difference in the intensity of C55-P bound to MraY at pH 8.0 and at pH 5.0
